Measurements as given in PubChem BioAssay AID2060510 (Molecular Pharmacology Branch, DTP, NCI, 2025).
“And” between values parts separate entries of the source, which are not always exact repeats. Equal values may be shown once.

Tested on: 439559-082-T-J2-PDC spheroids viability
Assay: Anticancer human tumor 439559-082-T-J2-PDC patient-derived colon adenocarcinoma cell line growth inhibition [GQUAD]
Conditions: for viability, T/C: stronger effect = lower value
Source text: DNA G-quadruplex Stabilizer Agents in Combinations in Complex Spheroids
A high-throughput screen of multi-cell type tumor spheroids was designed to identify active combinations of DNA G-quadruplex stabilizer agents and targeted small molecules. Complex spheroids include a stromal component modeled by human endothelial cells (HUVEC) and fibroblasts modeled by human mesenchymal stem cells (MSCs). The concentration ranges selected for each drug and investigational agent were based upon clinically achievable concentrations if the clinical Cmax of the agent was known.
Compounds. The drugs and investigational agents: pidnarulex (CX-5461; NSC782164), APTO-253 (NSC789042), BRACO-19 (NSC847499), peposertib (NSC802822), ceralasertib (NSC780249), elimusertib (NSC800525), camonsertib (NSC841442), AZD-1390 (NSC803789), olaparib (NSC753686), talazoparib (NSC767125), ART-558 (NSC835418), sotorasib (NSC818433), MRTX-1133 (NSC836407), SN-38 (NSC673596), topotecan (NSC609699), etoposide (NSC141540), doxorubicin (NSC123127), gemcitabine (NSC613327), 5-fluorouracil (NSC19893), paclitaxel (NSC125973), vemurafenib (NSC761431), panobinostat (NSC761190), R-306465 (JNJ-16241199; NSC773264), adavosertib (NSC754352), TP-3654 (NSC805149), carboplatin (NSC241240), KSQ-4279 (NSC840948), and staurosporine (NSC755774) were obtained from the National Cancer Institute (NCI) Developmental Therapeutics Program Chemical Repository (34). The FDA-approved anticancer drug set is available from the NCI Developmental Therapeutics Program. […] The stock solutions were prepared in dimethyl sulfoxide (DMSO, Sigma-Aldrich, St. Louis, MO, cat. D2650) at 800-fold the tested concentration and stored at -70 degrees C prior to their use. All drugs and investigational agents were tested over a range starting from a high concentration at or near the clinical Cmax and decreasing in half-log increments. If the clinical Cmax for an agent had not been determined, the highest concentration tested was 10 microM.
2.3 Cell Culture. All cells were maintained in an incubator at 37 degrees C and 5% CO2 with 95% humidity. The PDC lines were cultured according to standard operating procedures established by the NCI PDMR. All PDCs were thawed and cultured in Matrigel-coated flasks prepared with a working solution of 1X Ham's F-12 nutrient mix, without supplementation (Invitrogen, cat. 11765054), 100 U/mL penicillin-streptomycin (Invitrogen, cat. 15140122), and 2.5% Matrigel (Corning Inc., cat. 354248) for the first three passages. The 857933-349-R-J2-PDC line was cultured in 6C/Colon 1B media, which includes advanced DMEM/F-12 (Thermo Fisher Scientific, cat. 12634028), 10 mM HEPES (Thermo Fisher Scientific, cat. 15630080), 1X GlutaMAX supplement (Thermo Fisher Scientific, cat. 35050061), 0.1 mg/mL primocin (InvivoGen, cat. ant-pm-2), 10% defined fetal bovine serum, heat inactivated (HyClone Laboratories Inc., cat. SH30070.03HI), 50% L-WRN conditioned media (ATCC, cat. CRL-3276), 1.25 mM N-Acetyl-L-cysteine (Sigma-Aldrich, cat. A9165), 10 mM nicotinamide (Sigma-Aldrich, cat. N0636), 1X B-27 supplement (Thermo Fisher Scientific, cat. 17504044), 1X N-2 supplement (Thermo Fisher Scientific, cat. 17502048), 10 microM Y-27632 dihydrochloride (Tocris Bioscience, cat. 1254), and 50 ng/mL human EGF recombinant protein (Thermo Fisher Scientific, cat. PHG0311). The 485176-168-R4-J1-PDC line was cultured in Panc media, which includes all 6C/Colon 1B media components plus 100 ng/mL human FGF-10 (Thermo Fisher Scientific, cat. 100-26), 500 nM SB-431542 (Selleckchem, cat. S1067), and gastrin (Tocris, cat. 3006).
[…]
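Note: spheroids exposed to the agents for 7 days before readout.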
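Throughout, for viability, T/C: percent of luminescence signal in DMSO vehicle wells taken as 100% viability.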

Molecule `Cc1[nH]c2ccccc2c1CCNCc1ccc(/C=C/C(=O)NO)cc1` + CN(C)c1ccc(Nc2c3ccc(NC(=O)CCN4CCCC4)cc3nc3cc(NC(=O)CCN4CCCC4)ccc23)cc1 has an IC50 (curve of first compound, second compound 0.0316 µM) of over 316 nM, an IC50 (curve of first compound, second compound 0.1 µM) of over 316 nM and an IC50 (curve of first compound, second compound 0.316 µM) of over 316 nM. For the same molecule, the IC50 (curve of first compound, second compound 1 µM) was over 316 nM, the IC50 (curve of first compound, second compound 3.16 µM) was over 316 nM and the IC50 (curve of first compound, second compound 10 µM) was over 316 nM. For the same molecule, the viability, T/C (second compound 0.0316 µM, first compound 0.000999 µM) was 105%, the viability, T/C (second compound 0.0316 µM, first compound 0.00316 µM) was 86.9% and the viability, T/C (second compound 0.0316 µM, first compound 0.00999 µM) was 91.8%. It also gave a viability, T/C (second compound 0.0316 µM, first compound 0.0316 µM) of 87.3%, a viability, T/C (second compound 0.0316 µM, first compound 0.0999 µM) of 84.7% and a viability, T/C (second compound 0.0316 µM, first compound 0.316 µM) of 63.6%. The viability, T/C (second compound 0.1 µM, first compound 0.000999 µM) was 110%, the viability, T/C (second compound 0.1 µM, first compound 0.00316 µM) was 102% and the viability, T/C (second compound 0.1 µM, first compound 0.00999 µM) was 101%. For the same molecule, the viability, T/C (second compound 0.1 µM, first compound 0.0316 µM) was 83.9%, the viability, T/C (second compound 0.1 µM, first compound 0.0999 µM) was 83.8% and the viability, T/C (second compound 0.1 µM, first compound 0.316 µM) was 60.9%. For the same molecule, the viability, T/C (second compound 0.316 µM, first compound 0.000999 µM) was 93.6%, the viability, T/C (second compound 0.316 µM, first compound 0.00316 µM) was 91.3% and the viability, T/C (second compound 0.316 µM, first compound 0.00999 µM) was 85.5%. It also gave a viability, T/C (second compound 0.316 µM, first compound 0.0316 µM) of 76.4%, a viability, T/C (second compound 0.316 µM, first compound 0.0999 µM) of 80% and a viability, T/C (second compound 0.316 µM, first compound 0.316 µM) of 62.3%. The viability, T/C (second compound 1 µM, first compound 0.000999 µM) was 99.1%, the viability, T/C (second compound 1 µM, first compound 0.00316 µM) was 99.1% and the viability, T/C (second compound 1 µM, first compound 0.00999 µM) was 99.9%. The viability, T/C (second compound 1 µM, first compound 0.0316 µM) was 86.9%, the viability, T/C (second compound 1 µM, first compound 0.0999 µM) was 78.5% and the viability, T/C (second compound 1 µM, first compound 0.316 µM) was 64.1%. It also gave a viability, T/C (second compound 3.16 µM, first compound 0.000999 µM) of 93.8%, a viability, T/C (second compound 3.16 µM, first compound 0.00316 µM) of 89.4% and a viability, T/C (second compound 3.16 µM, first compound 0.00999 µM) of 88.5%. It also gave a viability, T/C (second compound 3.16 µM, first compound 0.0316 µM) of 79.2%, a viability, T/C (second compound 3.16 µM, first compound 0.0999 µM) of 75.3% and a viability, T/C (second compound 3.16 µM, first compound 0.316 µM) of 60.8%. The viability, T/C (second compound 10 µM, first compound 0.000999 µM) was 96.1%, the viability, T/C (second compound 10 µM, first compound 0.00316 µM) was 95.7% and the viability, T/C (second compound 10 µM, first compound 0.00999 µM) was 97.9%. For the same molecule, the viability, T/C (second compound 10 µM, first compound 0.0316 µM) was 84.7%, the viability, T/C (second compound 10 µM, first compound 0.0999 µM) was 83% and the viability, T/C (second compound 10 µM, first compound 0.316 µM) was 68.9%.

`COc1ccc([C@@H](O)c2cc(-c3ncnc4cc(N5CCOCC5)ccc34)c(F)cc2Cl)nn1` was tested, and the viability, T/C (compound 0.0316 µM) was 101% and 95.3% and 86.2%, the viability, T/C (compound 0.1 µM) was 85.9% and 92.8% and 85% and the viability, T/C (compound 0.316 µM) was 94.8% and 100% and 84.1%. The viability, T/C (compound 1 µM) was 98.8% and 88.3% and 102%, the viability, T/C (compound 3.16 µM) was 86.5% and 77.7% and 79.9% and the viability, T/C (compound 10 µM) was 91.6% and 78% and 75.7%. The IC50 (curve of compound) was over 10000 nM.
